Measured values reported in paper PMC10235848, “Novel N′-substituted benzylidene benzohydrazides linked to 1,2,3-triazoles: potent α-glucosidase inhibitors” (Scientific Reports, 2023).
Values belong to the compound of their own block, whether it stands above or below them.

Tests used:
[1] = target: T1, α-glucosidase (Saccharomyces cerevisiae, UniProt P53341); conditions: cited from earlier work
[2] = target: T1, α-glucosidase; experiment: Fluorescence quenching spectroscopy; type: binding; parameters: ΔS: unit not given here; conditions: for Kq quenching rate constant / n binding sites: 25 °C; for ΔS: standard thermodynamic values from KA
Description: Fluorescence spectrometry was used for studying the interactions between selected α-glucosidase inhibitors (7a, 7d, and 7h) and the enzyme at 25 °C and pH 6.8 to determine the binding constants, number of binding sites, and thermodynamic parameters of the corresponding interactions. Herein, the maximum fluorescence intensity of α-glucosidase was obtained at 340 nm, which can be attributed to tryptophan, tyrosine, and phenylalanine residues that can act as intrinsic fluorescence probes with excitation at 280 nm.
The fluorescence measurements were performed on a Synergy HTX multi-mode reader (Biotek Instruments, Winooski, VT, USA) equipped with a quartz cuvette of 10 mm. The excitation wavelength was 280 nm and the emission spectra were measured in the range from 300 to 440 nm with 10 accumulations for each collection point. The emission spectrum was corrected for the background fluorescence from the buffer solution and for the inner filter effect promoted by the inhibitors. The protein-inhibitors interaction measurements were performed by collecting the fluorescence.
The fluorescence quenching of the protein (P) by a drug or inhibitor (D) was analyzed by Stern−Volmer equation (Eq. 1), where F0 and F are the fluorescence intensity in the absence and presence of a quencher (inhibitor), respectively. [D] is the concentration of inhibitor, Kq is the quenching rate constant, τ0 is the average life-time of the molecule without the quencher (10^−8 s), and KSV is the Stern−Volmer dynamic quenching constant.1 F0/F=1+Kqτ0D=1+KSVD
The reaction of the protein (P) and a drug molecule or inhibitor (D) was considered as Eq. 2, where P is the protein, D is the drug molecule, and DnP is the new complex molecule with the binding constant of KA.2 P+D→DnP
As the number of the binding site of protein and drug is respectively n and 1, the equivalent concentration of the complex DnP is n[DnP]; the equivalent concentration of the protein is n[P] and the equivalent concentration of the drug is [D]. In this respect, the KA value is calculated based on the Eq. (3).3 KA=nDnP/DnP
If the total concentration of protein is [Pt] and the total concentration of the drug is [Dt]: [Pt] = [Pf] + [DnP] and [Df] = [Dt] − n[DnP].
If protein (P) is the only fluorescence in the reaction system, thus:4 F0/F=Pt/Pf where F and F0 are the fluorescence intensity of protein in the presence and absence of drug D, respectively. Therefore, the relationship between the fluorescence intensity and the drug total concentration can be deduced from Eq. (5).5 F0/F=KADtF0/F0-F-nKAPt
Keeping the total concentration of protein at a definite value and varying the total concentration of the drug leads to obtaining the plot of F0/F as a function of [Dt] F0/(F0 − F) following with the calculation of KA.
The standard thermodynamic values were calculated according to Eqs. (6), (7), where ΔH, ΔG, and ΔS are enthalpy, free energy, and entropy changes, respectively. In the case of small changes in temperature, the enthalpy change can be considered as a constant and ΔH is calculated from Eq. (6) following with the calculation of ΔG and ΔS from Eq. (7).6 lnKA2/KA1=1/T1-1/T2ΔH/R 7 ΔG=-RTlnKA=ΔH-TΔS

[3] = target: T1, α-glucosidase; experiment: Fluorescence quenching spectroscopy; type: binding; conditions: 35 °C
[4] = tested on: HEK293 cell line; conditions: no reference given; cited from earlier work

T1 sequence (P53341 whole entry): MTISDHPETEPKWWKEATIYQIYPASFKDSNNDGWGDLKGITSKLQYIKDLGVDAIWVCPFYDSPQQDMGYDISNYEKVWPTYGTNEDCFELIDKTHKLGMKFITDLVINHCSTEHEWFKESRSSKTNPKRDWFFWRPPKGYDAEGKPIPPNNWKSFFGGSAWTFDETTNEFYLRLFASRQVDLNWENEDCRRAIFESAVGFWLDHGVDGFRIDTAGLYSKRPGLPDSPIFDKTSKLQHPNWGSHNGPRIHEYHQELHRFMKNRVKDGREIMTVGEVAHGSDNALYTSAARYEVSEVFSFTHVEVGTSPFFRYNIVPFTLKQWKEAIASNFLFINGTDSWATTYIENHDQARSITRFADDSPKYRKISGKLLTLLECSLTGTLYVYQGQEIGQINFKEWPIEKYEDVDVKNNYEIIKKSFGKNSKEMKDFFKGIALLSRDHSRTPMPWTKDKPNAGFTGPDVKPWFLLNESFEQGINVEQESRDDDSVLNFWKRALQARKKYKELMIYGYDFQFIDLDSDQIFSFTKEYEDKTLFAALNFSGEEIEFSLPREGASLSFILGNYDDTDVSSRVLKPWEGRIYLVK

SMILES: O=c1oc2ccccc2c(O)c1C(c1ccc(OCc2cn(Cc3ccccc3Cl)nn2)cc1)c1c(O)c2ccccc2oc1=O [A]
IC50 [1]: 13 ± 1.5 µM
mode of inhibition [1]: competitive

SMILES: O=C1Nc2ccccc2/C1=N/N=C/c1ccc(OCc2cn(Cc3ccccc3F)nn2)cc1 [C]
IC50 [1]: 16.43 ± 0.01 µM
mode of inhibition [1]: competitively

SMILES: O=C(NN=Cc1ccccc1)c1ccc(OCc2cn(Cc3ccccc3)nn2)cc1 [Compound 7a, 4-((1-Benzyl-1H-1,2,3-triazol-4-yl)methoxy)-N′-benzylidenebenzohydrazide]
Kq quenching rate constant [2]: 1.5e+15 L/mol/s
n binding sites [2]: 0.8
ΔS [2]: 48.37
Kq quenching rate constant [3]: 9e+15 L/mol/s

melting point: 160 to 163 °C
SMILES: O=C(NN=Cc1ccccc1)c1ccc(OCc2cn(Cc3ccc(F)cc3)nn2)cc1 [Compound 7b, N′-Benzylidene-4-((1-(4-fluorobenzyl)-1H-1,2,3-triazol-4-yl)methoxy)benzohydrazide]

melting point: 203 to 207 °C
SMILES: O=C(NN=Cc1ccccc1)c1ccc(OCc2cn(Cc3ccccc3Cl)nn2)cc1 [Compound 7c, N′-Benzylidene-4-((1-(2-chlorobenzyl)-1H-1,2,3-triazol-4-yl)methoxy)benzohydrazide]

SMILES: Cc1ccc(Cn2cc(COc3ccc(C(=O)NN=Cc4ccccc4)cc3)nn2)cc1 [Compound 7d, N′-Benzylidene-4-((1-(4-methylbenzyl)-1H-1,2,3-triazol-4-yl)methoxy)benzohydrazide]
Kq quenching rate constant [2]: 4.2e+15 L/mol/s
n binding sites [2]: 0.1
ΔS [2]: 146.0
melting point: 154 to 156 °C
Kq quenching rate constant [3]: 1e+15 L/mol/s

melting point: 193 to 196 °C
SMILES: O=C(NN=Cc1ccc([N+](=O)[O-])cc1)c1ccc(OCc2cn(Cc3ccccc3)nn2)cc1 [Compound 7e, 4-((1-Benzyl-1H-1,2,3-triazol-4-yl)methoxy)-N′-(4-nitrobenzylidene)benzohydrazide]

melting point: 202 to 205 °C
SMILES: O=C(NN=Cc1ccc([N+](=O)[O-])cc1)c1ccc(OCc2cn(Cc3ccc(F)cc3)nn2)cc1 [Compound 7f, 4-((1-(4-Fluorobenzyl)-1H-1,2,3-triazol-4-yl)methoxy)-N′-(4-nitrobenzylidene)benzohydrazide]

melting point: 204 to 206 °C
SMILES: O=C(NN=Cc1ccc([N+](=O)[O-])cc1)c1ccc(OCc2cn(Cc3ccccc3Cl)nn2)cc1 [Compound 7g, 4-((1-(2-Chlorobenzyl)-1H-1,2,3-triazol-4-yl)methoxy)-N′-(4-nitrobenzylidene)benzohydrazide]

SMILES: Cc1ccc(Cn2cc(COc3ccc(C(=O)NN=Cc4ccc([N+](=O)[O-])cc4)cc3)nn2)cc1 [Compound 7h, 4-((1-(4-Methylbenzyl)-1H-1,2,3-triazol-4-yl)methoxy)-N′-(4-nitrobenzylidene)benzohydrazide]
Kq quenching rate constant [2]: 1e+15 L/mol/s
n binding sites [2]: 0.06
ΔS [2]: 71.1
melting point: 247 to 250 °C
Kq quenching rate constant [3]: 6.8e+15 L/mol/s

melting point: 211 to 214 °C
SMILES: O=C(NN=Cc1ccc(Cl)cc1)c1ccc(OCc2cn(Cc3ccccc3)nn2)cc1 [Compound 7i, 4-((1-Benzyl-1H-1,2,3-triazol-4-yl)methoxy)-N′-(4-chlorobenzylidene)benzohydrazide]

melting point: 236 to 238 °C
SMILES: O=C(NN=Cc1ccc(Cl)cc1)c1ccc(OCc2cn(Cc3ccc(F)cc3)nn2)cc1 [Compound 7j, N′-(4-Chlorobenzylidene)-4-((1-(4-fluorobenzyl)-1H-1,2,3-triazol-4-yl)methoxy)benzohydrazide]

melting point: 246 to 248 °C
SMILES: O=C(NN=Cc1ccc(Cl)cc1)c1ccc(OCc2cn(Cc3ccccc3Cl)nn2)cc1 [Compound 7k, 4-((1-(2-Chlorobenzyl)-1H-1,2,3-triazol-4-yl)methoxy)-N′-(4-chlorobenzylidene)benzohydrazide]

melting point: 216 to 218 °C
SMILES: Cc1ccc(Cn2cc(COc3ccc(C(=O)NN=Cc4ccc(Cl)cc4)cc3)nn2)cc1 [Compound 7l, N′-(4-Chlorobenzylidene)-4-((1-(4-methylbenzyl)-1H-1,2,3-triazol-4-yl)methoxy)benzohydrazide]

melting point: 237 to 240 °C
SMILES: COc1ccc(C=NNC(=O)c2ccc(OCc3cn(Cc4ccccc4)nn3)cc2)cc1 [Compound 7m, 4-((1-Benzyl-1H-1,2,3-triazol-4-yl)methoxy)-N′-(4-methoxybenzylidene)benzohydrazide]

melting point: 222 to 225 °C
SMILES: COc1ccc(C=NNC(=O)c2ccc(OCc3cn(Cc4ccccc4Cl)nn3)cc2)cc1 [Compound 7o, 4-((1-(2-Chlorobenzyl)-1H-1,2,3-triazol-4-yl)methoxy)-N′-(4-methoxybenzylidene)benzohydrazide]

melting point: 224 to 228 °C
SMILES: COc1ccc(C=NNC(=O)c2ccc(OCc3cn(Cc4ccc(C)cc4)nn3)cc2)cc1 [Compound 7p, N′-(4-Methoxybenzylidene)-4-((1-(4-methylbenzyl)-1H-1,2,3-triazol-4-yl)methoxy)benzohydrazide]

SMILES: CCc1ccc(NC(=O)Cn2cc(COc3ccc(-c4nc5ccccc5[nH]4)cc3)nn2)cc1 [Compound B]
IC50 [1]: 25.2 ± 0.9 µM

SMILES: COC(=O)c1c(C)cc(OC(=O)c2c(C)cc(O)c(/C=N/NC(=O)Cc3ccccc3)c2O)c(C)c1O [E]
toxicity on the HEK293 cell line [4]: without toxicity
